# Experimental data as given in patent US8193373B2, “Therapeutic compounds” (Allergan, Inc., priority 2006, dated 2012).
# Experiments:
# [1] = molecular target: T1, EP2 receptor (Homo sapiens, UniProt P43116); assay: Binding at the EP2 receptor (assays described in WO 2005/044501)
# From the text: (§1) The compound above has the following activity at the EP2 receptor according to the assays described in WO 2005/044501.
# [2] = molecular target: T1, EP2 receptor; assay: cAMP assay at the EP2 receptor (assays described in WO 2005/044501); assay type: cell-based
# From the text: as §1
# T1 sequence (P43116 whole entry): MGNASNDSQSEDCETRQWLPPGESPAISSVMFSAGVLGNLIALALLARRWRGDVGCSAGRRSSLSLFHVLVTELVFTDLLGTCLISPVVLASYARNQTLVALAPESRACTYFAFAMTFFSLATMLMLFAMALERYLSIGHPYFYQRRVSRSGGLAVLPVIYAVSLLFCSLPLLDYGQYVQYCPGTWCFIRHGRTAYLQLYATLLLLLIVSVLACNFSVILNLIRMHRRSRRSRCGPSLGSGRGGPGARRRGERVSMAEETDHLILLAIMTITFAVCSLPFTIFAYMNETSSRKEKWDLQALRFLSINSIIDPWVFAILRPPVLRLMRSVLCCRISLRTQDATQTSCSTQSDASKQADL
compound,measurement,setting,value
"N#C[C@@H]1C[C@@H](O)[C@H](/C=C/CC(O)C2(Cc3ccc(Cl)s3)CCC2)[C@H]1C/C=C\CCCC(=O)O (stereo partly drawn) [(Z)-7-((1S,2R,3R,5R)-2-((E)-4-(1-((5-chlorothiophen-2-yl)methyl)cyclobutyl)-4-hydroxybut-1-enyl)-5-cyano-3-hydroxycyclopentyl)hept-5-enoic acid]",Ki,[1],116 nM
same,EC50,[2],3 nM
